Target: T1, human Patched (hPtc) expressed in S. cerevisiae (Homo sapiens, UniProt Q13635)
T1 construct: MAP; expressed in transfected cells; host or cells: Saccharomyces cerevisiae K699
T1 sequence (Q13635 1-1447): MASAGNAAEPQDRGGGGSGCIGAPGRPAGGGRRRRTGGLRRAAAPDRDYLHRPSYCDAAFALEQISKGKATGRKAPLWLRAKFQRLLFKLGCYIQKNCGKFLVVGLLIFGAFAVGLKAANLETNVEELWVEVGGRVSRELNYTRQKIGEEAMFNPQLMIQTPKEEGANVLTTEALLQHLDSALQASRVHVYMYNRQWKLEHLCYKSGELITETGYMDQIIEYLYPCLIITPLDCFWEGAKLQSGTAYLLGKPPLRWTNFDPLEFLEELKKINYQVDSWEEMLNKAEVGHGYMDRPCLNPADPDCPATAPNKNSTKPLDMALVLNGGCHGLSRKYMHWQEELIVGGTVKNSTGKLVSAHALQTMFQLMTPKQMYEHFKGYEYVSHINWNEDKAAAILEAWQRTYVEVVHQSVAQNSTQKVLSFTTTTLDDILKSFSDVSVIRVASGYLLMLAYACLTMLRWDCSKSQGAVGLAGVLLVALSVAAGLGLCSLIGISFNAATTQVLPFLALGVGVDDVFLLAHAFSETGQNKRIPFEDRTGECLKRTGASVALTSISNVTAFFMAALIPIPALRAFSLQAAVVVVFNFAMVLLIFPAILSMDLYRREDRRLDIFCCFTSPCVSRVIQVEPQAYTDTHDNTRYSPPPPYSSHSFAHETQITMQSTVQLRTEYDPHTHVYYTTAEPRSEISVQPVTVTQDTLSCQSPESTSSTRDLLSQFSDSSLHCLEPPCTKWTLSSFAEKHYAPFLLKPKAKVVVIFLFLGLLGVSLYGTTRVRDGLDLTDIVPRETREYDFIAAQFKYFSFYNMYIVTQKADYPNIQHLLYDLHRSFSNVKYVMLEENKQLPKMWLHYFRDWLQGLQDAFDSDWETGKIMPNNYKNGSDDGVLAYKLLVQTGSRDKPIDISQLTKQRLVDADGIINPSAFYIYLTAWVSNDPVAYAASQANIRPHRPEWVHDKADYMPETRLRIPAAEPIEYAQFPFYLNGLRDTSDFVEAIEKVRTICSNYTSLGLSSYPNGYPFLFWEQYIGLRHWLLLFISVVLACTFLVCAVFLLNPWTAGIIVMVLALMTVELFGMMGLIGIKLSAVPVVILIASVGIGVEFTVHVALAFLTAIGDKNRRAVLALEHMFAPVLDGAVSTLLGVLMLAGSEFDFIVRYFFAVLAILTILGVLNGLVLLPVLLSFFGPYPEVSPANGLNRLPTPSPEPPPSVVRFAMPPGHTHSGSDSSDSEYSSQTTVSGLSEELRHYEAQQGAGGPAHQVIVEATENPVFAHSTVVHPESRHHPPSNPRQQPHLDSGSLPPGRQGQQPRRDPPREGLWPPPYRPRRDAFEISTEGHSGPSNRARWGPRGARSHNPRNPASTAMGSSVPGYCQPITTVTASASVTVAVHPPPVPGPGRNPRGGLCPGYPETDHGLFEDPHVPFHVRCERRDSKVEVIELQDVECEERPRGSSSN
Test: Screening test 1: resistance of Patched-expressing yeast to doxorubicin (yeast growth, absorbance 600 nm)
Type: cell-based
Conditions: 10 μg/mL fraction or purified compound, 10 μM doxorubicin
Protocol: A. Haliclona mucosa sponge. B. Haliclona mucosa methanolic fraction contains inhibitors of the resistance of Patched-expressing yeasts to doxorubicin. Yeast S. cerevisiae expressing hPtc were grown in 96 well plates in the presence of 10 μg/mL of the methanolic fraction of Haliclona mucosa crude extract dissolved in DMSO and in presence or not of 10 μM of doxorubicin (dxr). The growth of yeasts was measured by absorbance at 600 nm and the results shown are the mean of three independent experiments. C. Purification profile of Haliclona mucosa methanolic fraction. A preparative phenyl-hexyl HPLC column was used with a gradient starting at (47 H20: 53 ACN: 0.1 TFA) to (0 H20: 100 ACN: 0.1 TFA), flow rate: 10.0 mL/min, injection volume: 75 μl at 100 mg/mL. […] Purified compounds dissolved in DMSO were added (at 10 μg/mL) to the growth medium containing or not 10 μM dxr. The growth of yeasts was measured by absorbance at 600 nm.
S. cerevisiae expressing human Patched were grown in 10 mL of minimal medium (supplemented with 2% of glucose and amino acids cocktail without leucine) at 30° C. When the exponential phase was obtained (OD600=5-7), yeasts were precultured in the same medium to OD600=1-2. Yeasts were then diluted in rich medium containing 2% of glucose in 96-well plates. Methanolic or purified fractions (at 10 μg/mL final concentration) were added in all wells, and doxorubicin (10 μM final concentration) was added in half of the wells. Plates were incubated at 18° C. on a shaker at 1250 rpm (microtitre plate shaker SSL5 Stuart) and absorbance at 600 nm was recorded for about 72 hours.
Inventors cultured yeast S. cerevisiae expressing human Patched in their plasma membrane as previously described (Bidet et al., 2011, 2012) in 96 well plates. Methanolic fraction of Haliclona mucosa crude extracts was prepared, dissolved in DMSO at 10mg/mL and added at a final concentration of 10 μg/mL to the yeast culture medium supplemented or not with doxorubicin (dxr). As previously reported (Bidet et al., 2012), human Patched confers a resistance to growth inhibition by dxr, an […] used to treat a wide range of cancers (FIG. 2B).

Question: With `COc1cc(C)c(CC/C(C)=C/Cc2cc(O)ccc2O)c(C)c1C` [P5, Panicein A hydroquinone] as the compound, how does the “inhibition of the resistance (growth) of hPtc-expressing yeast in presence of dxr” value (“inhibition of the resistance” for short) read?
Answer: strongly inhibit

Question: How did the “inhibition of the resistance” value turn out when `C/C(=C\Cc1cc(O)ccc1O)CCc1c(C)cc(O)c(C=O)c1C` [P3, Panicein B3] was run?
Answer: strongly inhibit

Question: `Cc1cc(O)c(C=O)c(C)c1CCC1(C)C=Cc2cc(O)ccc2O1` (stereo not shown) [P4, Panicein B2] was tested. Which “inhibition of the resistance” value did it give?
Answer: lighter

Question: How did the “inhibition of the resistance” value turn out when `C/C(=C\Cc1cc(O)ccc1O)CCc1c(C)c(O)c(O)c(C=O)c1C` [P2, Panicein C] was run?
Answer: strongly inhibit

— patent US10376476B2, “Panicein compounds, compositions and uses thereof” (CENTRE NATIONAL DE LA RECHERCHE SCIENTIFIQUE, priority 2014, dated 2019)
